This note sets out measurements from patent EP1699833B1, “OLIGOMERS CONTAINING N-ACETYL GLUCOSAMINE” (Council of Scientific and Industrial Research, priority 2003, dated 2005).

In this test the target is lysozyme (Gallus gallus, UniProt P00698). Briefly: Relative inhibition of lysozyme (lysis of Micrococcus lysodeikticus, absorbance at 450 nm). Particulars: Micrococcus lysodeikticus substrate, phosphate buffer pH 6.2, 20° C; for concentration at maximum inhibition: concentration at Imax; for Imax: maximum inhibition; for IC50: read-out: I50. It counts as biochemical. Here is the method:
This example describes estimation of relative inhibition of lysozyme by polyvalent oligomer containing NAG
1.5 % w/v stock solutions of oligomer containing NAG was prepared in 0.0066 M phosphate buffer pH 6.2 containing 0.0154 m sodium chloride and 0.008 M sodium azide. One milliliter of stock solution containing different ligand concentration was mixed with 1.6 ml of 78 µg1ml of Micrococcus lysodeikticus in a 3-ml capacity lass cuvette. The mixture was incubated for 5 minutes at 20° C. To this mixture 0.1 ml of lysozyme (27 µg1ml) was added and mixed thoroughly. The absorbance at 450 nm (Δ450) was recorded for 30 seconds. A blank reading without the polymer ligand was noted and the change in the absorbance per second was calculated.

Chain of lysozyme (P00698 19-147): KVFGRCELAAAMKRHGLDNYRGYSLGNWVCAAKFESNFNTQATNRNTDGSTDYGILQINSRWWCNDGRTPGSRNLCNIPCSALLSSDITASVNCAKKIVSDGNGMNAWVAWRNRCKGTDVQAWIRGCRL

As for `CC(=O)N[C@H]1C(O)O[C@H](CO)[C@@H](O)[C@@H]1O` (stereo partly shown) [NAG, N-Acetyl Glucosamine], the “concentration at maximum inhibition” value was 92.50 mM and the Imax is 55.29.
On to `C=CC(=O)OCC1OC(O)C(NC(C)=O)C(O)C1O` (stereo not shown) [Ac .NAG, Acryloyl N-Acetyl Glucosamine], for which the IC50 was determined as 14.8 mM and the Imax is 50.00.
In the case of “Methacryloyl N-Acetyl Glucosamine [M.Ac. NAG]”, the IC50 came to 18.1 mM, the “concentration at maximum inhibition” value was determined as 21.2 mM and the Imax is recorded as 71.89.
